Assay results published in US4092426A, “Novel aminobenzoic acid derivatives, process for preparing the same and pharmaceutical composition containing the same” (Chugai Seiyaku Kabushiki Kaisha, priority 1975, dated 1978).
Structures can show the parent of a compound that is named as a salt.

Tests used:
[1] = system: autoimmune glomerulonephritis; experiment: Activity for Treating a Model of Autoimmune Disease (glomerulonephritis); type: in vivo, New Zealand Black/White F1 female mice
Experimental: Pharmacological activity of the test compound, disodium salt of N-2'-carboxyphenyl-4-chloroanthranilic acid, was studied by the use of glomerulonephritis of New Zealand Black/White F1 female mice as a model of autoimmune disease. The test animals were divided into groups of 8 members each and orally administered with the test compound in a dose of 5 mg/kg or 50 mg/kg once a day from 8 week old. Development of the disease was evaluated by measuring the level of protein in urine with Combistix test paper (Ames Co., Inc.). It was confirmed that the evaluation by the test paper closely corresponds to the results of a quantitative analysis by a sulfosalicyclic acid method. Changes in average level of protein in urine each of the groups during a period of from 20 weeks old to 35 weeks old of the mice are shown in FIG. 2. […] Further, 3 mice among 8 mice of the control group were died from glomerulonephritis during the period of from 35 to 40 weeks from their birth, while there was no death in the groups to which the test compound had been administered.

Sarcoma-180 [2] = experiment: Antitumor Activity on Transplanted Tumor Cells (Sarcoma-180); type: in vivo, ddY strain male mice; conditions: 10 mg/kg oral once a day for 11 days; tumor weight 14 days after transplantation
Source text: For test animals, ddY strain male mice weighing 20 - 25 g were used dividing into groups of 9 or 10 members each. Each of the mice was subjected to transplantation of 10^6 tumor cells (Sarcoma-180) at a portion of the root of a hind paw by subcutaneous injection to induce solid tumor. The test compound, disodium salt of N-2'-carboxyphenyl-4-chloroanthranilic acid, was orally administered once a day for 11 days from the day that transplantation was made. Fourteen days after the transplantation, the grown tumor tissue was taken out from each mouse and its wet weight was measured to evaluate antitumor activity of the test compound. […] For the reasons stated above, it is assumed that the activity of the test compound is based on host-mediated antitumor activity.

Sarcoma-180 [3] = experiment: growth of Sarcoma-180 tumor cells in vitro; type: cell-based
AH-13 = experiment: Antitumor Activity to Transplanted Cancer Cells (AH-13); type: in vivo, Donryu strain female rats; conditions: for Average Survival Terms: control 7.1
Source text: As test animals, Donryu strain female rats (8 week old) which were divided into groups of 10 members each were used. Each rat was intraperitoneally administered with test compound, disodium salt of N-2'-carboxyphenyl-4-chloroanthranilic acid, once a day for 10 days from 16 days before the inoculation of the tumor cells disclosed hereinbelow. Sixteen days after the first administration of the test compound, each rat was intraperitoneally inoculated with 10^6 tumor cells identified as AH-13 to induce cancer of abdominal dropsy.

lymphocites = experiment: Activity for Promoting Blastogenesis of Lymphocites (in vitro); type: cell-based, C3 H/He strain male mice; conditions: 10^-1 to 10^-2 μg/ml
Experimental: In this Experiment, influence of the test compound disodium salt of N-2'-carboxyphenyl-4-chloroanthranilic acid on blastogenesis of lymphocites was studied by the use of spleen cells and lymphonoid cells of mouse and rat. For in vitro test, C3 H/He strain male mice and for in vivo Wistar-Imamichi strain male rats were used respectively. Concanavallin A manufactured by Sigma was used as the blastogenetic factor in the in vitro test and lymphocites were cultured by the use of medium of RPMI 1640 manufactured by Grand Island Biological Co. The cultivation of the lymphocites was carried out in the medium at 37° C in a 5% carbon dioxide atmosphere for about 48 hours and after the addition of 0.5 μCi/ml of ^3 H-thymidine, the cells in the medium were incubated for 16 hours and then the lymphocites were separated. The radioactivity of the separated cells was measured by a scintillation counter and the value was evaluated as an indicator of blastogenetic degree. For the in vivo test, the in vitro test was repeated except that each rat was orally administered with the test compound in a dose of 5 or 50 mg/kg. In this case, the rats administered with the test compound were divided into groups of 3 members each and the cells to be cultivated from the rats in each group were placed under the same cultivation conditions. […]

Compound: O=C(O)c1ccccc1Nc1cc(Cl)ccc1C(=O)O [disodium salt of N-2'-carboxyphenyl-4-chloroanthranilic acid]
- suppression of autoimmune glomerulonephritis ([1]; 5 or 50 mg/kg oral once a day): significantly shows pharmacological activities to suppress autoimmune glomerulonephritis
- level of protein in urine ([1]; 5 or 50 mg/kg oral once a day, 20 to 35 weeks old, control rose after around 27 weeks): maintained a relatively steady level
- death from glomerulonephritis ([1]; 5 or 50 mg/kg oral, 35 to 40 weeks from birth, control 3 among 8 died): no death
- suppression of tumor growth (Sarcoma-180) (Sarcoma-180 [2]): significant activity for suppression of tumor growth
- direct antitumor activity on Sarcoma-180 cells (Sarcoma-180 [3]; directly on the cells): no antitumor activity directly on the cells
- growth of Sarcoma-180 cells in vitro (Sarcoma-180 [3]; in vitro): does not suppress the growth
- T/C (AH-13; 50 mg/kg i.p.): 163%
- host-mediated antitumor activity (AH-13) (AH-13; 50 mg/kg i.p.): exhibits host-mediated antitumor activity
- Average Survival Terms (AH-13; 50 mg/kg i.p.): 11.6 days
- T/C (AH-13; 100 mg/kg i.p.): 103%
- Average Survival Terms (AH-13; 100 mg/kg i.p.): 7.3 days
- T/C (AH-13; 200 mg/kg i.p.): 97%
- Average Survival Terms (AH-13; 200 mg/kg i.p.): 6.9 days
- activity of Concanavallin A (blastogenesis of lymphocites) (lymphocites): improved the activity of Concanavallin A
